Measured values: patent US4436726A, “N-Acylpeptide compound, processes for the preparation thereof and the pharmaceutical compositions” (Fujisawa Pharmaceutical Co., Ltd., priority 1980, dated 1984)

Key:
[1] = tested on: complement serum (guinea pig complement); experiment: Anticomplementary activity (inhibition of hemolysis of sensitized erythrocytes); assay type: biochemical; details: 50% hemolysis inhibition, 37° C.
Description: The anticomplementary activity of the test compound was measured according to the test method as described in Experimental Immunochemistry, edited by E. A. Kabat and M. M. Mayer, 2nd ed., Springfield, III: C. C. Thomas (1961) pages 133-240.
A mixture of 1 ml of a 5-fold diluted solution of a Veronal buffer solution containing 1.5×10^-4 M Ca^2+ and 5×10^-4 M Mg^2+ and isotonic gelatin, 1.5 ml of complement serum (guinea pig complement) diluted 400 times with a physiological saline solution and 0.05 ml of a solution of a test compound (in this case, a test compound was dissolved in a physiological saline solution) was incubated at 37° C. for 30 minutes. To the said mixture there was added 0.4 ml of sensitized erythrocytes suspension containing 5×10^8 cells/ml and said mixture was incubated at 37° C. further for 60 minutes. After the incubation, the mixture was centrifuged in 3,000 rpm at 4° C. for 10 minutes.
The results are expressed in Table 1 as the concentration of each drugs inhibiting the hemolysis activity by 50% (IC50).

[2] = tested on: blood clot (fresh rabbit blood, urokinase, bovine thrombin); experiment: Fibrinolytic activity (modified diluted whole blood clot lysis time method); assay type: biochemical; details: 50 μl of test compound (300 μg/ml), 37° C.
Description: The enhancement of the fibrinolytic activity of the test compounds was measured according to the modified diluted whole blood clot lysis time method described in
G. R. Fearnley, G. V. Balmforth, E. Fearnley: Clin. Sci. 16, 645-650 (1957)
I. S. Chohan et al: Thrombos. Diathes. Haemorrh. 33, 226 (1975) and
I. M. Nilsson et al: Handbook of Experimental Pharmacology 46, 110
Fresh rabbit blood was diluted 20 times with 1/15 M phosphate buffer (pH 7.4). A mixture of 400 μl of the diluted blood solution and 50 μl of a test compound (300 μg/ml) was incubated at 37° C. for 30 minutes. To the mixture were added 50 μl of urokinase solution (100 IU/ml) and 50 μl of bovine thrombin (100 N.I.H. u/ml). The clot produced in tubes was incubated at 37° C. for various periods of time. At the end of each incubation interval (15 minutes interval), 2.5 ml of distilled water was added to lyse erythrocytes released from clotted blood and absorbance (OD541) of the supernatant separated by centrifugation (3,000 rpm for 10 minutes) from the reaction mixture was measured. The fibrinolytic activity of the test compound was determined by the time in minutes needed for the complete lysis of the blood clot.
In the absence of a test compound, it took more than 2 hours to lyse blood clot in the above condition. However, blood clot was lysed in the presence of test compounds after 15 minutes (symbol: ++) and 45 minutes (symbol: +) incubation, respectively. Samples which were incapable of lysing blood clot within 1 hour incubation were expressed as symbol (-).

Row | SMILES | Anticomplementary Activity (IC50) [1] [µg/mL] | Fibrinolytic Activity (time needed for complete lysis of the blood clot) [2]
1 | CC(C)CCCCCCCCCCCC(=O)OC(CCCCCCCCCCCC(C)C)CC(=O)NCC(=O)N[C@@H](CO)C(=O)O (stereo partly drawn) [Example 1, N-[N-[15-methyl-3-(13-methyltetradecanoyloxy)hexadecanoyl]glycyl]-L-serine] | 1.0 | 
2 | CCCCCCCCCCCC(=O)OC(CCCCCCCCCCC)CC(=O)NCC(=O)N[C@@H](CO)C(=O)O (stereo partly drawn) [Example 3, N-[N-(3-dodecanoyloxytetradecanoyl)glycyl]-L-serine] | 0.12 | 
3 | CCCCCCCCCCCCCCCC(=O)OC(CCCCC)CC(=O)NCC(=O)N[C@@H](CO)C(=O)O (stereo partly drawn) [Example 4, N-[N-(3-hexadecanoyloxyoctanoyl)glycyl]-L-serine] | 1.1 | 
4 | CCCCCCCCCCCCCCCC(=O)OC(CCCCCCCCCCCCCCC)CC(=O)NCCC(=O)N[C@H](C(=O)O)[C@@H](C)O (stereo partly drawn) [Example 7, N-[N-(3-hexadecanoyloxyoctadecanoyl)-β-alanyl]-L-threonine] | 0.02 to 0.03 | 
5 | CC(C)CCCCCCCCCCCC(=O)OC(CCCCCCCCCCCC(C)C)CC(=O)NCCC(=O)N[C@H](C(=O)O)[C@@H](C)O (stereo partly drawn) [Example 8, N-[N-[15-methyl-3-(13-methyltetradecanoyloxy)hexadecanoyl]-β-alanyl]-L-threonine] | 0.04 to 0.06 | 
6 | CC(C)CCCCCCCCCCCC(=O)OC(CCCCCCCCCCCC(C)C)CC(=O)NCCC(=O)N[C@@H](CO)C(=O)O (stereo partly drawn) [Example 9, N-[N-[15-methyl-3-(13-methyltetradecanoyloxy)hexadecanoyl]-β-alanyl]-L-serine] | 0.1 | + (45 minutes (symbol: +) incubation)
7 | CCCCCCCCCCCCCCCC(=O)OC(CCCCCCCCCCCCCCC)CC(=O)NCCC(=O)N[C@@H](CO)C(=O)O (stereo partly drawn) [Example 10, N-[N-(3-hexadecanoyloxyoctadecanoyl)-β-alanyl]-L-serine] | 0.03 to 0.04 | 
8 | CC(C)CCCCCCCCCCCC(=O)OC(CCCCCCCCCCCC(C)C)CC(=O)NCC(=O)N[C@H](C(=O)O)[C@@H](C)O (stereo partly drawn) [Example 11, N-[N-[15-methyl-3-(13-methyltetradecanoyloxy)hexadecanoyl]glycyl]-L-threonine] | 0.36 | + (45 minutes (symbol: +) incubation)
9 | CC(C)CCCCCCCCCCCC(=O)OC(CCCCCCCCCCCC(C)C)CC(=O)N[C@@H](C)C(=O)N[C@@H](CO)C(=O)O (stereo partly drawn) [Example 12, N-[N-[15-methyl-3-(13-methyltetradecanoyloxy)hexadecanoyl]L-alanyl]-L-serine] | 0.59 | 
10 | CC(C)CCCCCCCCCCCC(=O)OC(CCCCCCCCCCCC(C)C)CC(=O)N[C@@H](C)C(=O)N[C@H](C(=O)O)[C@@H](C)O (stereo partly drawn) [Example 13, N-[N-[15-methyl-3-(13-methyltetradecanoyloxy)hexadecanoyl]-L-alanyl]-L-thr eonine] | 0.72 | 
11 | CCCCCCCCCCCCCCCC(=O)OC(CCCCCCCCCCCCCCC)CC(=O)N[C@@H](C)C(=O)N[C@H](C(=O)O)[C@@H](C)O (stereo partly drawn) [Example 14, N-[N-(3-hexadecanoyloxyoctadecanoyl)-L-alanyl]-L-threonine] | 0.23 | 
12 | CC(C)CCCCCCCCCCCC(=O)OC(CCCCCCCCCCCC(C)C)CC(=O)NCC(=O)N[C@@H](Cc1ccccc1)C(=O)O (stereo partly drawn) [Example 15, N-[N-[15-methyl-3-(13-methyltetradecanoyloxy)hexadecanoyl]glycyl]-L-phenyl alanine] | 2.8 | ++ (blood clot was lysed in the presence of test compounds after 15 minutes (symbol: ++))
13 | CC(C)CCCCCCCCCCCC(=O)OC(CCCCCCCCCCCC(C)C)CC(=O)NCCC(=O)N[C@@H](Cc1c[nH]cn1)C(=O)O (stereo partly drawn) [Example 16, N-[N-[15-methyl-3-(13-methyltetradecanoyloxy)hexadecanoyl]-β-alanyl]-L-histidine] | 4.2 | 
14 | CC(C)CCCCCCCCCCCC(=O)OC(CCCCCCCCCCCC(C)C)CC(=O)NCC(=O)N[C@@H](Cc1ccc(O)cc1)C(=O)O (stereo partly drawn) [Example 18, N-[N-[15-methyl-3-(13-methyltetradecanoyloxy)hexadecanoyl]glycyl]-L-tyrosine] | 3.2 | + (45 minutes (symbol: +) incubation)
15 | CC(C)CCCCCCCCCCCC(=O)OC(CCCCCCCCCCCC(C)C)CC(=O)NCC(=O)O (stereo not drawn) [Example 19, N-[15-methyl-3-(13-methyltetradecanoyloxy)hexadecanoyl]glycine] | 4.0 | + (45 minutes (symbol: +) incubation)
16 | CC(C)CCCCCCCCCCCC(=O)OC(CCCCCCCCCCCC(C)C)CC(=O)N[C@@H](CO)C(=O)O (stereo partly drawn) [Example 20, N-[15-methyl-3-(13-methyltetradecanoyloxy)hexadecanoyl]-L-serine] | 2.8 | + (45 minutes (symbol: +) incubation)
17 | CCCCCCCCCCCCCCCC(=O)OC(CCCCCCCCCCCCCCC)CC(=O)N[C@@H](Cc1ccccc1)C(=O)O (stereo partly drawn) [Example 26, N-(3-hexadecanoyloxyoctadecanoyl)-L-phenylalanine] | 3.5 | + (45 minutes (symbol: +) incubation)
18 | CCCCCCCCCCCCCCCC(=O)OC(CCCCCCCCCCCCCCC)CC(=O)NCC(=O)O (stereo not drawn) [Example 27, N-(3-hexadecanoyloxyoctadecanoyl)glycine] | 0.44 | + (45 minutes (symbol: +) incubation)
19 | CCCCCCCCCCCCCCCC(=O)OC(CCCCCCCCCCCCCCC)CC(=O)N[C@H](C(=O)N[C@H](C(=O)O)[C@@H](C)O)C(C)C (stereo partly drawn) [Example 29, N-[N-(3-hexadecanoyloxyoctadecanoyl)-L-valyl]-L-threonine] | 0.59 | 
20 | CCCCCCCCCCCCCCCC(=O)OC(CCCCCCCCCCCCCCC)CC(=O)NCCC(=O)N[C@@H](Cc1ccccc1)C(=O)O (stereo partly drawn) [Example 32, N-[N-(3-hexadecanoyloxyoctadecanoyl)-β-alanyl]-L-phenylalanine] | 1.32 | ++ (blood clot was lysed in the presence of test compounds after 15 minutes (symbol: ++))
21 | CCCCCCCCCCCCCCCC(=O)OC(CCCCCCCCCCCCCCC)CC(=O)NCCCCC(=O)N[C@H](C(=O)O)[C@@H](C)O (stereo partly drawn) [Example 34, N-[5-(3-hexadecanoyloxyoctadecanoyl)aminovaleryl]-L-threonine] | 0.02 | + (45 minutes (symbol: +) incubation)
22 | CCCCCCCCCCCCCCCC(=O)OC(CCCCCCCCCCCCCC)C(=O)NCC(=O)N[C@@H](CO)C(=O)O (stereo partly drawn) [Example 35, N-[N-(2-hexadecanoyloxyhexadecanoyl)glycyl]-L-serine] | 0.03 | + (45 minutes (symbol: +) incubation)
23 | CCCCCCCCCCCCCCCC(=O)OC(CCCCCCCCCCCCCC)C(=O)NCCC(=O)N[C@H](C(=O)O)[C@@H](C)O (stereo partly drawn) [Example 36, N-[N-(2-hexadecanoyloxyhexadecanoyl)-β-alanyl]-L-threonine] | 0.08 | + (45 minutes (symbol: +) incubation)
24 | CCCCCCCCCCCCCCCC(=O)OC(CCCCCCCCCCCCCCC)CC(=O)NCC(=O)N[C@@H](Cc1ccccc1)C(=O)O (stereo partly drawn) [Example 38, N-[N-(3-hexadecanoyloxyoctadecanoyl)glycyl]-L-phenylalanine] | 3.4 | + (45 minutes (symbol: +) incubation)
25 | CCCCCCCCCCCCCCCC(=O)OC(CCCCCCCCCCCCCCC)CC(=O)NCC(=O)N[C@@H](Cc1c[nH]c2ccccc12)C(=O)O (stereo partly drawn) [Example 43, N-[N-(3-hexadecanoyloxyoctadecanoyl)glycyl]-L-tryptophan] | 5.11 | + (45 minutes (symbol: +) incubation)
